{
  "source": "patent US20260356860A1",
  "about": "“2-SUBSTITUTED 3,4A,5,7,8,8A-HEXAHYDRO-4H-THIOPYRANO[4,3-DJPYRIMIDIN-4-ONES FOR WOUND TREATMENT” (priority 2022, published 2026)",
  "key": {"[1]": {"system": "HEK293 SuperTOPFlash reporter cells, Wnt promoter", "assay": "HEK CELL Wnt Assay (luciferase reporter)", "type": "cell-based", "details": "serial dilutions, with or without 50 ng/mL Wnt3a; 18 h", "procedure": "In order to determine the effect of the compounds of Formula (I) on Wnt inhibition, an in vitro assay using HEK293 SuperTOPFlash reporter cells, with the Wnt promoter driving a luciferase reporter gene, were utilized. 40,000 HEK293 SuperTOPFlash reporter cells were seeded, per well, in a 48 well plate for 24 hours, prior to administration of serial dilutions of the compound of Formula (I) to individual wells. Serial dilutions ranging from […] to 1 nM of the compound of Formula (I) were added with or without 50 ng/mL Wnt3a (Time Biosciences) and allowed to incubate with the reporter cells for 18 hours. Reporter cells with no treatment were used as negative control."}, "[2]": {"system": "E. coli (derived from ATCC ® 25922 ™)", "assay": "Bacteriostasis, log reduction", "type": "cell-based", "details": "E. coli ATCC 25922", "procedure": "(§1) In order to assess the log reduction capabilities of compounds of Formula (1), testing was performed on organisms that are found in acute and chronic wounds. Triplicate tubes were prepared for each bacteria using 50 μL of inoculum (about 1×10^6 CFU/mL) which was added to 450 μL of compound solution (compound of Formula (I)) (or 100 μL of inoculum in 900 μL of compound solution), resulting in a final inoculum of about 1×10^5 CFU/mL, as shown in Table 4.\n(§2) Tubes were mixed with a vortex and then incubated in a shaking incubator at 175 RPM and 35° C. to 37° C.\n(§3) Positive control in Tables 5a and 5b was 1 mL of 0.89% saline with 1 mL of the 1×10^6 CFU/mL of the organism.\n(§4) For Compounds 1, 7, 8, 10, and 18 in Tables 6, 7-A, 7-B, 8, 9, 10-A, 10-B, and 11: The compound solutions were prepared with compound (30 mg), polysorbate 20 (1.6 mL), butylene glycol (1.6 mL), phosphatidyl choline (0.66 g), ethanol (1.6 mL), hydroxypropyl cellulose (0.26 g), and ultra pure water (24.9 mL).\n(§5) XAV939 Control in Table X1 was XAV939 (30 mg), polysorbate 20 (1.6 mL), butylene glycol (1.6 mL), phosphatidyl choline (0.66 g), ethanol (1.6 mL), ultra pure water (24.9 mL), and hydroxypropyl cellulose (0.26 g).\n(§6) GO-HA Control in Table X2 was GO-HA (30 mg), polysorbate 20 (1.6 mL), butylene glycol (1.6 mL), phosphatidyl choline (0.66 g), ethanol (1.6 mL), ultra pure water (24.9 mL), and hydroxypropyl cellulose (0.26 g).\n(§7) For Compound 18+GO-HA in Tables 6 and X4: compound 18 (45 mg), GO-HA (45 mg), polysorbate 20 (2 mL), butylene glycol (2 mL), phosphotidyl choline (0.5 g), ethanol (2 mL), hydroxypropyl cellulose (0.40 g), and ultra pure water (40 mL).\n(§8) For XAV939+GO-HA in Tables 6 and X3-A, and X3-B: XAV939 (45 mg), GO-HA (45 mg), butylene glycol (2 mL), polysorbate 20 (2 mL), phosphotidyl choline (0.5 g), ethanol (2 mL), hydroxypropyl cellulose (0.40 g), and ultra pure water (40 mL).\n(§9) Testing was performed at two time points: 18 to 24 hours, and […]."}, "[3]": {"system": "E. coli (derived from ATCC ® 8739 ™)", "assay": "Bacteriostasis, log reduction", "type": "cell-based", "details": "E. coli ATCC 8739", "procedure": "as §1, §2, §3, §4, §5, §6, §7, §8, §9"}, "[4]": {"system": "E. faecalis (derived from ATCC ® 19433 ™)", "assay": "Bacteriostasis, log reduction", "type": "cell-based", "details": "E. faecalis ATCC 19433", "procedure": "as §1, §2, §3, §4, §5, §6, §7, §8, §9"}, "[5]": {"system": "P. aeruginosa (derived from ATCC ® 15442 ™)", "assay": "Bacteriostasis, log reduction", "type": "cell-based", "details": "P. aeruginosa ATCC 15442", "procedure": "as §1, §2, §3, §4, §5, §6, §7, §8, §9"}, "[6]": {"system": "S. aureus (MRSA) (derived from ATCC ® 33593 ™)", "assay": "Bacteriostasis, log reduction", "type": "cell-based", "details": "S. aureus (MRSA) ATCC 33593", "procedure": "as §1, §2, §3, §4, §5, §6, §7, §8, §9"}, "[7]": {"system": "S. aureus (derived from ATCC ® 6538 ™)", "assay": "Bacteriostasis, log reduction", "type": "cell-based", "details": "S. aureus ATCC 6538", "procedure": "as §1, §2, §3, §4, §5, §6, §7, §8, §9"}, "[8]": {"system": "S. epidermidis (derived from ATCC ® 14990 ™)", "assay": "Bacteriostasis, log reduction", "type": "cell-based", "details": "S. epidermidis ATCC 14990", "procedure": "as §1, §2, §3, §4, §5, §6, §7, §8, §9"}, "[9]": {"system": "TK 1", "details": "cell-free assay; read-out: IC50, TK 1 inhibition; cited from earlier work"}, "[10]": {"system": "TK2", "details": "cell-free assay; read-out: IC50, TK2 inhibition; cited from earlier work"}, "[11]": {"system": "CRE, F-κB, or TGF-β", "details": "cited from earlier work"}, "[12]": {"details": "cited from earlier work"}, "[13]": {"system": "ear punch wound", "details": "cited from earlier work"}, "[14]": {"system": "wound", "details": "in a GO-HA matrix; cited from earlier work"}},
  "data": [
    {"smiles": "Oc1nc(-c2ccc(C(F)(F)F)cc2)nc2c1CSCC2", "note": "[XAV939, reference compound]", "values": [
      {"measurement": "IC50", "setting": "[1]", "value": 50, "unit": "nM"},
      {"measurement": "Average result", "setting": "[2]; 24 h", "value": "2.8 × 10^4"},
      {"measurement": "Log Reduction", "setting": "[2]; 24 h", "value": 1.0},
      {"measurement": "Log Value", "setting": "[2]; 24 h", "value": 4.4},
      {"measurement": "Average result", "setting": "[2]; 72 h", "value": "<200"},
      {"measurement": "Log Reduction", "setting": "[2]; 72 h", "value": ">3.1"},
      {"measurement": "Log Value", "setting": "[2]; 72 h", "value": "<2.3"},
      {"measurement": "Average result", "setting": "[3]; 24 h", "value": "2.7 × 10^3"},
      {"measurement": "Log Reduction", "setting": "[3]; 24 h", "value": 1.9},
      {"measurement": "Log Value", "setting": "[3]; 24 h", "value": 3.4},
      {"measurement": "Average result", "setting": "[3]; 72 h", "value": "<200"},
      {"measurement": "Log Reduction", "setting": "[3]; 72 h", "value": ">3.0"},
      {"measurement": "Log Value", "setting": "[3]; 72 h", "value": "<2.3"},
      {"measurement": "Average result", "setting": "[4]; 24 h", "value": "2.6 × 10^5"},
      {"measurement": "Log Reduction", "setting": "[4]; 24 h", "value": "No"},
      {"measurement": "Log Value", "setting": "[4]; 24 h", "value": 5.4},
      {"measurement": "Average result", "setting": "[4]; 72 h", "value": "1.7 × 10^5"},
      {"measurement": "Log Reduction", "setting": "[4]; 72 h", "value": "No"},
      {"measurement": "Log Value", "setting": "[4]; 72 h", "value": 5.1},
      {"measurement": "Average result", "setting": "[5]; 24 h", "value": "<200"},
      {"measurement": "Log Reduction", "setting": "[5]; 24 h", "value": ">3.1"},
      {"measurement": "Log Value", "setting": "[5]; 24 h", "value": "<2.3"},
      {"measurement": "Average result", "setting": "[5]; 72 h", "value": "<200"},
      {"measurement": "Log Reduction", "setting": "[5]; 72 h", "value": ">3.1"},
      {"measurement": "Log Value", "setting": "[5]; 72 h", "value": "<2.3"},
      {"measurement": "Average result", "setting": "[6]; 24 h", "value": "8.7 × 10^4"},
      {"measurement": "Log Reduction", "setting": "[6]; 24 h", "value": "No"},
      {"measurement": "Log Value", "setting": "[6]; 24 h", "value": 4.9},
      {"measurement": "Average result", "setting": "[6]; 72 h", "value": "<6.8 × 10^3"},
      {"measurement": "Log Reduction", "setting": "[6]; 72 h", "value": ">0.8"},
      {"measurement": "Log Value", "setting": "[6]; 72 h", "value": "<3.8"},
      {"measurement": "Average result", "setting": "[7]; 24 h", "value": "2.5 × 10^3"},
      {"measurement": "Log Reduction", "setting": "[7]; 24 h", "value": 1.9},
      {"measurement": "Log Value", "setting": "[7]; 24 h", "value": 3.4},
      {"measurement": "Average result", "setting": "[7]; 72 h", "value": "1.7 × 10^5"},
      {"measurement": "Log Reduction", "setting": "[7]; 72 h", "value": 0.1},
      {"measurement": "Log Value", "setting": "[7]; 72 h", "value": 5.2},
      {"measurement": "Average result", "setting": "[8]; 24 h", "value": "5.5 × 10^4"},
      {"measurement": "Log Reduction", "setting": "[8]; 24 h", "value": 0.1},
      {"measurement": "Log Value", "setting": "[8]; 24 h", "value": 4.7},
      {"measurement": "Average result", "setting": "[8]; 72 h", "value": "<200"},
      {"measurement": "Log Reduction", "setting": "[8]; 72 h", "value": ">2.5"},
      {"measurement": "Log Value", "setting": "[8]; 72 h", "value": "<2.3"},
      {"measurement": "IC50", "setting": "[9]", "value": 11, "unit": "nM"},
      {"measurement": "IC50", "setting": "[10]", "value": 4, "unit": "nM"},
      {"measurement": "effect on CRE, F-κB, or TGF-β", "setting": "[11]", "value": "does not affect CRE, F-κB, or TGF-β"},
      {"measurement": "solubility in water-based solutions", "setting": "[12]", "value": "poor solubility in water-based solutions"},
      {"measurement": "aqueous solubility", "setting": "[12]; water", "value": "< 1", "unit": "µg/mL"},
      {"measurement": "cartilage regeneration and healing", "setting": "[13]; 2 mm biopsy punch wound in cartilaginous region of C57B1/CJ mouse", "value": "increased cartilage regeneration and healing"},
      {"measurement": "wound closure rate and fibrosis", "setting": "[13]; topical, mouse ear punch", "value": "significantly increased rate of wound closure with reduced fibrosis (scarring)"},
      {"measurement": "quality of wound healing", "setting": "[14]", "value": "substantial improvement to the quality of wound healing"}
    ]}
  ]
}
